The data set is described as follows: Stability to polymorphic conversion (heating, grinding, high relative humidity). It counts as physicochemical. Conditions: when heated, during grinding and/or high relative humidity.

Molecules are shown by their SMILES.

`Cc1cc(C[C@@H](NC(=O)N2CCC(c3cc4ccccc4[nH]c3=O)CC2)C(=O)N2CCN(C3CCN(C)CC3)CC2)cc2cn[nH]c12` [Form B]: the “stability to polymorphic conversion” value is listed as “particularly stable to polymorphic conversion”.

The record behind these values is patent US20240199578A1, “SOLID STATE FORMS OF ZAVEGEPANT AND PROCESS FOR PREPARATION THEREOF” (TEVA CZECH INDUSTRIES S.R.O, priority 2021, published 2024).
